From patent publication US20040242700A1 (priority 2001, published 2004)
Like-named read-outs stand apart in the source and are kept apart here.

How the values were obtained:
IL-12 = assay type: in vivo, mice
MPI [1] = assay type: in vivo, mice
SP-A [2] = assay type: in vivo, mice; details: administration of ambroxol
[3] = test system: mucosal immunoglobulin IgG; assay type: in vivo, mice
trypsin-type protease [4] = test system: trypsin-type protease; parameters: species or system mice; details: mouse, in vivo, ip
IL-6 = assay type: in vivo, mice
[5] = test system: mucosal immunoglobulin IgA; assay type: in vivo, mice
[6] = test system: mucosal immunoglobulin IgA; assay type: in vivo, mice; remark: listed apart in the source
trypsin-type protease [7] = assay type: in vivo, mice; details: 4th day
MPI [8] = assay type: in vivo, mice; details: administration of ambroxol
[9] = test system: inflammatory cytokines such as TNF-α, IL-2, IL-1, IL-4, IL-13 and IFN-γ; details: literature reports; cited from earlier work
SP-A [10] = test system: SP-A; parameters: species or system mice; details: mouse, in vivo, ip
[11] = test system: mucosal immunoglobulin IgG; assay type: in vivo, mice; remark: listed apart in the source
IFN-γ = assay type: in vivo, mice
TNF-α = assay type: in vivo, mice; details: 3rd to 5th day of treatment, not always observed

## Nc1c(Br)cc(Br)cc1CN[C@H]1CC[C@H](O)CC1 [ambroxol, 2-amino-3,5-dibromo-N-[trans-4-hydroxycyclohexyl] benzyl amine]
IL-12; 10 mg/kg/day i.p., day 1
  IL-12: 27.3 ± 7.1 pg/mL
IL-12; 10 mg/kg/day i.p., day 2
  IL-12: 68.5 ± 12.9 pg/mL
IL-12; 10 mg/kg/day i.p., day 3
  IL-12: 133.3 ± 17.2 pg/mL
IL-12; 10 mg/kg/day i.p., day 4
  IL-12: 119.5 ± 15.8 pg/mL
IL-12; 10 mg/kg/day i.p., day 5
  IL-12: 57.4 ± 16.0 pg/mL
IL-12; 10 mg/kg/day i.p., day 6
  IL-12: 29.4 ± 6.2 pg/mL
IL-12; 10 mg/kg/day i.p., day 7
  IL-12: 62.5 ± 27.7 pg/mL
IL-12; 30 mg/kg/day i.p., day 1
  IL-12: 22.4 ± 4.1 pg/mL
IL-12; 30 mg/kg/day i.p., day 2
  IL-12: 108.2 ± 33.3 pg/mL
IL-12; 30 mg/kg/day i.p., day 3
  IL-12: 141.5 ± 15.1 pg/mL
IL-12; 30 mg/kg/day i.p., day 4
  IL-12: 118.6 ± 11.4 pg/mL
IL-12; 30 mg/kg/day i.p., day 5
  IL-12: 62.4 ± 13.6 pg/mL
IL-12; 30 mg/kg/day i.p., day 6
  IL-12: 44.3 ± 29.1 pg/mL
IL-12; 30 mg/kg/day i.p., day 7
  IL-12: 95.8 ± 52.2 pg/mL
MPI [1]; […], treatment with ambroxol
  MPI concentration relative to that induced by the viral infection: 1.9 times
MPI [1]; mouse, in vivo
  peak MPI concentration relative to un-infected animals: 8.4 times
MPI [1]; mouse, in vivo, ip, 10 mg/kg/day
  day on which the MPI level reached the peak value: 5 days
MPI [1]; mouse, in vivo, ip, 30 mg/kg/day
  day on which the MPI level reached the maximum value: 4 days
SP-A [2]
  secretion of SP-A: lightly promoted
[3]; 10 mg/kg/day, 7th day
  IgG concentration relative to the group free of treatment: about 1.2 time
[3]; 30 mg/kg/day, 6th day
  IgG concentration relative to the group free of treatment: about 1.2 time
[3]; dose not stated
  IgG concentration relative to the basic concentration: 1.2 times
trypsin-type protease [4]; 10 mg/kg/day
  day on which the trypsin-type protease level reached the peak value: 5 days
trypsin-type protease [4]; 30 mg/kg/day
  day on which the trypsin-type protease level reached the peak level: 4 days
IL-6; 10 mg/kg/day i.p., day 1
  IL-6: 174.8 ± 35.0 pg/mL
IL-6; 10 mg/kg/day i.p., day 2
  IL-6: 191.8 ± 51.9 pg/mL
IL-6; 10 mg/kg/day i.p., day 3
  IL-6: 280.2 ± 54.2 pg/mL
IL-6; 10 mg/kg/day i.p., day 4
  IL-6: 339.2 ± 57.1 pg/mL
IL-6; 10 mg/kg/day i.p., day 5
  IL-6: 540.9 ± 84.2 pg/mL
IL-6; 10 mg/kg/day i.p., day 6
  IL-6: 503.23 ± 61.4 pg/mL
IL-6; 10 mg/kg/day i.p., day 7
  IL-6: 73.7 ± 14.7 pg/mL
IL-6; 30 mg/kg/day i.p., day 1
  IL-6: 170.8 ± 28.9 pg/mL
IL-6; 30 mg/kg/day i.p., day 2
  IL-6: 186.7 ± 19.6 pg/mL
IL-6; 30 mg/kg/day i.p., day 3
  IL-6: 326.2 ± 44.9 pg/mL
IL-6; 30 mg/kg/day i.p., day 4
  IL-6: 433.5 ± 101.9 pg/mL
IL-6; 30 mg/kg/day i.p., day 5
  IL-6: 478.2 ± 86.4 pg/mL
IL-6; 30 mg/kg/day i.p., day 6
  IL-6: 817.0 ± 168.0 pg/mL
IL-6; 30 mg/kg/day i.p., day 7
  IL-6: 80.0 ± 17.5 pg/mL
IL-6; 4th and 6th days of treatment
  effect on the level of IL-6 in BALF: increased
[5]; 10 mg/kg/day, 7th day
  IgA concentration relative to the group free of treatment: about 10 times
[5]; 30 mg/kg/day, 5th day
  IgA concentration relative to the group free of treatment: about 10 times
[5]; dose not stated
  IgA concentration relative to the basic concentration: about 10 times
[6]; 10 mg/kg/day, 7th day
  IgA level relative to the basic concentration of IgA: about 600 times
[6]; 30 mg/kg/day, 5th day
  IgA level relative to the basic concentration of IgA: ~700 times
[6]; treatment with ambroxol
  IgA concentration relative to the maximum concentration induced through the viral infection: 1.5-1.8 times
trypsin-type protease [7]; 10 mg/kg/day i.p.
  peak trypsin-type protease level relative to un-infected animals: up to 2.2 times
trypsin-type protease [7]; 30 mg/kg/day i.p.
  peak trypsin-type protease level relative to un-infected animals: ≤ 2.4 times
MPI [8]
  secretion of MPI: lightly promoted
[9]
  in vitro release of inflammatory cytokines such as TNF-α, IL-2, IL-1, IL-4, IL-13 and IFN-γ: inhibits
SP-A [10]; 10 mg/kg/day
  day on which the SP-A level reached the peak value: 5 days
SP-A [10]; 30 mg/kg/day
  day on which the SP-A level reached the maximum value: 4 days
[11]; 10 mg/kg/day, 6th day
  IgG concentration relative to the basic concentration of IgG: about 16 times
[11]; 30 mg/kg/day, 5th day
  IgG concentration relative to the basic concentration of IgG: ~15 times
[11]; treatment with ambroxol
  IgG concentration relative to the maximum concentration induced through the viral infection: ~1.45 times
IFN-γ; 10 mg/kg/day i.p., day 1
  INF-γ: 9.4 ± 2.4 pg/mL
IFN-γ; 10 mg/kg/day i.p., day 2
  INF-γ: 9.5 ± 1.8 pg/mL
IFN-γ; 10 mg/kg/day i.p., day 3
  INF-γ: 2.8 ± 0.9 pg/mL
IFN-γ; 10 mg/kg/day i.p., day 4
  IFN-γ: 5.3 ± 2.8 pg/mL
IFN-γ; 10 mg/kg/day i.p., day 5
  IFN-γ: 14.7 ± 5.3 pg/mL
IFN-γ; 10 mg/kg/day i.p., day 6
  IFN-γ: 39.4 ± 18.6 pg/mL
IFN-γ; 10 mg/kg/day i.p., day 7
  IFN-γ: 4.0 ± 1.6 pg/mL
IFN-γ; 30 mg/kg/day i.p., day 1
  INF-γ: 10.4 ± 2.7 pg/mL
IFN-γ; 30 mg/kg/day i.p., day 2
  INF-γ: 9.8 ± 2.4 pg/mL
IFN-γ; 30 mg/kg/day i.p., day 3
  INF-γ: 4.0 ± 1.1 pg/mL
IFN-γ; 30 mg/kg/day i.p., day 4
  IFN-γ: 10.2 ± 5.5 pg/mL
IFN-γ; 30 mg/kg/day i.p., day 5
  IFN-γ: 32.8 ± 11.1 pg/mL
IFN-γ; 30 mg/kg/day i.p., day 6
  IFN-γ: 61.8 ± 21.7 pg/mL
IFN-γ; 30 mg/kg/day i.p., day 7
  IFN-γ: 5.1 ± 1.8 pg/mL
IFN-γ; 1st day of treatment, not always observed
  effect on INF-γ secretion in BALF: secretion-inhibitory effects
TNF-α
  effect on TNF-α secretion in BALF: secretion-inhibitory effects
